Consider nine compounds from PubChem BioAssay (NCI).

What all share (assay): inhibition of tumour cell growth, NCI panel, 48 h
In experiment [1] the test system is SF-295 CNS.
For experiment [2], the system named is UO-31 renal.
In experiment [3] the test system is SNB-75 CNS.
Experiment [4] deals with OVCAR-3 ovarian.
Experiment [5] concerns SK-MEL-2 melanoma.
In experiment [6] the test system is U251 CNS.
The test system of experiment [7] is MCF7 breast.
Experiment [8] deals with SR leukemia.

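These data come from cells grown in 96-well plates and exposed to compound for 48 hours at five concentrations. Here, GI50 denotes the concentration required for 50% inhibition of growth. Definition used: TGI = concentration required for complete inhibition of growth.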

Turning to `CCOC(=O)[C@@H](C)C[C@H](Cc1ccccc1)NC(=O)c1csc([C@@H](C[C@H](C(C)C)N(C)C(=O)[C@H](CC)NC(=O)[C@H]2CCCCN2C)OC(C)=O)n1`, the GI50 in experiment [1] is less than 0.00167 µM; in experiment [2], 0.0128 µM; in experiment [3] it was less than 0.00167 µM; in experiment [4] it was less than 0.00167 µM; in experiment [5], less than 0.00167 µM; in experiment [6] it was 0.0031 µM. In addition, the GI50 in experiment [7] and in experiment [8] was less than 0.00167 µM in each case. Moreover, the TGI in experiment [1] is greater than 4.03 µM; in experiment [2], greater than 16.7 µM; in experiment [3] it was greater than 16.7 µM; in experiment [4], 0.00453 µM; in experiment [5], greater than 16.7 µM; in experiment [6], greater than 16.7 µM. In addition, the TGI in experiment [7] and in experiment [8] was greater than 16.7 µM each time.
For `COc1ccc(-c2c(-c3cc(OC)c(OC)c(OC)c3)noc2N)cc1`, the GI50 in experiment [1] is less than 0.01 µM; in experiment [3] it was less than 0.01 µM; in experiment [4], less than 0.01 µM; in experiment [5], 0.0188 µM; in experiment [6], less than 0.0165 µM; in experiment [7], less than 0.01 µM. The GI50 in experiment [8] is less than 0.01 µM. The TGI was greater than 100 µM in experiment [1]; greater than 100 µM in experiment [2]; 94.2 µM in experiment [3]; 0.0208 µM in experiment [4]; 81.4 µM in experiment [5]; 12.6 µM in experiment [6]. For the same compound, the TGI in experiment [7] is 19.1 µM; in experiment [8], 29.1 µM.
Turning to `N#CS.N=C=S.N=C=S.[Cu+2].[NH2-].[NH2-].[NH2-].[NH2-].c1ccc2ncccc2c1`, the GI50 was 17.7 µM in experiment [1]; 60.7 µM in experiment [2]; 21 µM in experiment [3]; 21.3 µM in experiment [4]; greater than 100 µM in experiment [5]; 20.1 µM in experiment [6]. The GI50 is 18.2 µM in experiment [7] and greater than 100 µM in experiment [8]. Moreover, the TGI in experiment [1] is 37 µM; in experiment [2] it was greater than 100 µM; in experiment [3] it was 49.9 µM; in experiment [4], 41.8 µM; in experiment [5], greater than 100 µM; in experiment [6], 38.1 µM. Also, the TGI in experiment [7] is 35.9 µM; in experiment [8], greater than 100 µM.
With `CCN(CC)CCCC(C)N=c1cc(Nc2cc(=NC(C)CCCN(CC)CC)c3cc(OC)ccc3o2)oc2ccc(OC)cc12` (stereo not drawn), the GI50 is 1.1 µM in experiment [1]; 0.874 µM in experiment [2]; 0.829 µM in experiment [3]; 1.29 µM in experiment [4]; 1.35 µM in experiment [5]; 1.15 µM in experiment [6]. The GI50 in experiment [7] was 1.08 µM; in experiment [8], 0.943 µM. The TGI in experiment [1] worked out at 3.14 µM; in experiment [2] it was 4.9 µM; in experiment [3], 2.93 µM; in experiment [4] it was 2.92 µM; in experiment [5], 2.71 µM; in experiment [6] it was 3.4 µM. The values for the TGI in experiment [7] and in experiment [8] were 3.68 µM and 3.02 µM, respectively.
For `CC1=C([Te]c2ccc(O)cc2)C(=O)c2ccccc2C1=O`, the GI50 in experiment [1] is 0.348 µM; in experiment [2], 1.56 µM; in experiment [3], 1.31 µM; in experiment [4], 1.44 µM; in experiment [5] it was 2.78 µM; in experiment [6] it was 1.31 µM. Further, the GI50 is 1.49 µM in experiment [7] and 0.461 µM in experiment [8]. Further, the TGI in experiment [1] came to 1.98 µM; in experiment [2], 4.98 µM; in experiment [3], 9.02 µM; in experiment [4], 2.79 µM; in experiment [5] it was 8.15 µM; in experiment [6] it was 7.28 µM. For the same compound, the TGI in experiment [7] amounted to 4.08 µM; in experiment [8], 2.67 µM.
Turning to `Nc1c(C(=O)c2ccc(CCCN3CCOCC3)cc2)cnn1-c1ccc(F)cc1`, the GI50 in experiment [1] is greater than 25 µM; in experiment [2] it was greater than 25 µM; in experiment [3] it was greater than 25 µM; in experiment [4], 24.3 µM; in experiment [5], greater than 25 µM; in experiment [6], greater than 25 µM. For the same compound, the values for the GI50 in experiment [7] and in experiment [8] were greater than 25 µM and greater than 20.4 µM, respectively. The TGI in experiment [1], in experiment [2], in experiment [3], in experiment [4], in experiment [5] and in experiment [6] was greater than 25 µM in each case. Moreover, the TGI in experiment [7] and in experiment [8] was greater than 25 µM throughout.
For `C[C@H](CCCNCCCNCCCN)[C@H]1CC[C@H]2[C@@H]3[C@H](OCCCN)C[C@H]4C[C@H](OCCCN)CC[C@]4(C)[C@H]3C[C@H](OCCCN)[C@]12C`, the GI50 in experiment [1] is 1.33 µM; in experiment [2], 0.913 µM; in experiment [3], 8.49 µM; in experiment [4] it was 14.6 µM; in experiment [5], 47.5 µM; in experiment [6], 2.65 µM. The GI50 was 6.46 µM in experiment [7] and 0.326 µM in experiment [8]. Also, the TGI is 23.9 µM in experiment [1]; greater than 58.2 µM in experiment [2]; greater than 83.9 µM in experiment [3]; greater than 62.5 µM in experiment [4]; greater than 100 µM in experiment [5]; 19.7 µM in experiment [6]. Also, the results for the TGI in experiment [7] and in experiment [8] were greater than 26.4 µM and 1.66 µM, respectively.
Regarding `Cc1cc(Oc2ccc3nc(COc4ccc(CC5SC(=O)NC5=O)cc4)n(C)c3c2)cc(C)c1N` (stereo not drawn), the GI50 in experiment [1] was 32.5 µM; in experiment [2], 24.8 µM; in experiment [3] it was 27.6 µM; in experiment [4], 28 µM; in experiment [5] it was greater than 49.4 µM; in experiment [6], 32.2 µM. Also, the GI50 in experiment [7] was 27.6 µM; in experiment [8], 31.7 µM. Also, the TGI in experiment [1] was greater than 100 µM; in experiment [2] it was greater than 81.6 µM; in experiment [3], greater than 72.7 µM; in experiment [4] it was greater than 70.9 µM; in experiment [5] it was greater than 69.7 µM; in experiment [6] it was greater than 94 µM. Also, the results for the TGI in experiment [7] and in experiment [8] were 98.9 µM and greater than 100 µM, respectively.
Consider `O=S(=O)(Nc1cc(Cl)ccc1Cl)c1ccc(-c2cnc(C3CC3)o2)cc1`, for which the GI50 in experiment [1] was 0.406 µM; in experiment [2] it was 2.49 µM; in experiment [3], 0.475 µM; in experiment [4], 0.512 µM; in experiment [5], 11.1 µM; in experiment [6], 2 µM. Further, the GI50 in experiment [7] was 0.557 µM; in experiment [8], 0.551 µM. The TGI in experiment [1] is 10.3 µM; in experiment [2], 43.5 µM; in experiment [3], 3.88 µM; in experiment [4], 14.8 µM; in experiment [5], 68.8 µM; in experiment [6], 68.2 µM. Further, the TGI in experiment [7] and in experiment [8] was greater than 100 µM in each case.
